US20030215462A1, “Use of UGT inhibitors to increase bioavailability” (priority 2001, published 2003)

Experiments:
[1] = test system: UGT enzymes of pooled human jejunum microsomes; test: Inhibition of 2ME2 glucuronidation (MG1) in pooled human jejunum microsomes; type: biochemical; settings: jejunum HJ61, 2ME2 50 μM
From the text: Compounds were eluted using a binary solvent gradient system where solvent A was dilute phosphoric acid (pH 3) and solvent B was 80:20 acetonitrile-methanol. […] Detection was at 280 nm.

[2] = target: T1, UGT1A10 (Homo sapiens, UniProt Q9HAW8); test: Inhibition of raloxifene glucuronidation by recombinant UGT1A10 Bacculosomes; settings: for activity at 15 min, 50 µM: human, Bacculosomes with recombinant human UGT1A10, pH 7.5, probe raloxifene 50 μM, inhibitor 50 μM
T1 sequence (Q9HAW8 26-530): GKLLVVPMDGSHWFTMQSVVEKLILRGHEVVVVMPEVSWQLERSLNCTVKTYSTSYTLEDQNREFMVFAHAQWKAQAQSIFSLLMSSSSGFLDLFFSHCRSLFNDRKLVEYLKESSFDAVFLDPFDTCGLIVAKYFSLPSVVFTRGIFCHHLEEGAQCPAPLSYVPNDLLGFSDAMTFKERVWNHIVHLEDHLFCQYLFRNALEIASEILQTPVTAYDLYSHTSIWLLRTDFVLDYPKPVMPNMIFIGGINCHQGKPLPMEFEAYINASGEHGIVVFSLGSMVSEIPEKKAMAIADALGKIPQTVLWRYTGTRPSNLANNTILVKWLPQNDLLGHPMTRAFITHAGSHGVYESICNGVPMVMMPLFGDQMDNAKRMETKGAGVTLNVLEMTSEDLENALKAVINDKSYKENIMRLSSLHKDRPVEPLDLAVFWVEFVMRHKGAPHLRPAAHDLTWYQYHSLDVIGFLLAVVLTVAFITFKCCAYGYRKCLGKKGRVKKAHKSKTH
Procedure: (§1) Compounds were eluted using a binary solvent gradient system. Solvent A was water brought to pH 8 with NH4OH. Solvent B was methanol. Solvent flow rate was 1 ml/min and the column temperature was maintained at 50° C. Detection was at 280 nm. […] The system was then returned to the initial conditions and equilibrated for 3 min.

[3] = target: T2, UGT1A3 (Homo sapiens, UniProt P35503); test: Inhibition of raloxifene glucuronidation by recombinant UGT1A3 Supersomes; settings: for activity at 15 min, 10 µM / activity at 15 min, 25 µM / activity at 15 min, 50 µM: human; for activity at 15 min, 10 µM: inhibitor 10 μM; for activity at 15 min, 25 µM: inhibitor 25 μM; for activity at 15 min, 50 µM: inhibitor 50 μM
T2 sequence (P35503 29-534): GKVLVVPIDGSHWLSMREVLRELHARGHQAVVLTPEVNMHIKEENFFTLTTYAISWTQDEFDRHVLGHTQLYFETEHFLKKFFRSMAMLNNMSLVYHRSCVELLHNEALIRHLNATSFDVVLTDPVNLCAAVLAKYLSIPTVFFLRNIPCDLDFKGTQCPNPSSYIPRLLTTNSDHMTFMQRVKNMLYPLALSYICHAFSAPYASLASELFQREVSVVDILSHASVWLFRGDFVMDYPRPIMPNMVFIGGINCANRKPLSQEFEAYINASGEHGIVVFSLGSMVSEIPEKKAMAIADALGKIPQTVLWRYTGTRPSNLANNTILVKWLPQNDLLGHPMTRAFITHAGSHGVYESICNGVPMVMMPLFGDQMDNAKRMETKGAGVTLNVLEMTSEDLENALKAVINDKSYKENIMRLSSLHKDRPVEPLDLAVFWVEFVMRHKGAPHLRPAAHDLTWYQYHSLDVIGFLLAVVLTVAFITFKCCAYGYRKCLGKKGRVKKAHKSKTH
Procedure: as §1

[4] = target: T3, UGT1A9 (Homo sapiens, UniProt O60656); test: Inhibition of raloxifene glucuronidation by recombinant UGT1A9 Supersomes; settings: for activity at 15 min, 50 µM: human, Supersomes with recombinant human UGT1A9, pH 7.5, probe raloxifene 50 μM
T3 sequence (O60656 26-530): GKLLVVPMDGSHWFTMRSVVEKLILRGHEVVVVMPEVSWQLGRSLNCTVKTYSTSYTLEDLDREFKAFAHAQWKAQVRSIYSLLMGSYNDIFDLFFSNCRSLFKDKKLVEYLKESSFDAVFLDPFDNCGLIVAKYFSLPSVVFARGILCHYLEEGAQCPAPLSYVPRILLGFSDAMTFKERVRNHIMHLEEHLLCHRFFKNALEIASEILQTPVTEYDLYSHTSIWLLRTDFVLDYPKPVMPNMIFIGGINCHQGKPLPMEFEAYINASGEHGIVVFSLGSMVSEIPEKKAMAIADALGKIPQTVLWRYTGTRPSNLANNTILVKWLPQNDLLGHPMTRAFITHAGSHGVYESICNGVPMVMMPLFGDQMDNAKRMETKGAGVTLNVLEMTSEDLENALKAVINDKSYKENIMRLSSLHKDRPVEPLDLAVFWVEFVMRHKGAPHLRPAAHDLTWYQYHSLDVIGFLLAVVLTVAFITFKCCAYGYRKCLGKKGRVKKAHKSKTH
Procedure: as §1

[5] = test system: UGT enzymes of human liver microsomes; test: Inhibition of raloxifene glucuronidation (G1, G2) in human liver microsomes; type: biochemical; settings: for % of control metabolism (SD, n = 3), raloxifene glucuronide G1 / % of control metabolism (SD, n = 3), raloxifene glucuronide G2: human liver microsomes 250 μg/ml, 15 min
From the text: Compounds were eluted using a binary solvent gradient system. […] Solvent B was methanol. […] Detection was at 280 nm.

[6] = Supersomes with recombinant human UGT1A3, pH 7.5, probe raloxifene 50 μM, formation of glucuronide G1, % of control metabolism, raloxifene G1, UGT1A3
[7] = Supersomes with recombinant human UGT1A3, pH 7.5, probe raloxifene 50 μM, formation of glucuronide G2, % of control metabolism, raloxifene G2, UGT1A3
[8] = recombinant UGT1A3 Supersomes, pH 7.5, probe raloxifene 50 μM (formation of glucuronide G1), Inhibition of raloxifene glucuronidation, G1, UGT1A3, G1, raloxifene 50 μM, 250 μg/ml Supersomes, 1 mM UDPGA, 15 min
[9] = recombinant UGT1A3 Supersomes, pH 7.5, probe raloxifene 50 μM (formation of glucuronide G2), Inhibition of raloxifene glucuronidation, G2, UGT1A3, G2, raloxifene 50 μM, 250 μg/ml Supersomes, 1 mM UDPGA, 15 min
[10] = inhibitor 10 μM, raloxifene 50 μM
[11] = inhibitor 25 μM, raloxifene 50 μM
[12] = inhibitor 50 μM, raloxifene 50 μM
[13] = inhibitor 100 μM, raloxifene 50 μM
[14] = liver lot 032101, inhibitor 50 μM
[15] = liver lot 062101, inhibitor 50 μM
[16] = liver lot 083000, inhibitor 50 μM
[17] = raloxifene 50 μM, inhibitor 10 μM
[18] = raloxifene 50 μM, inhibitor 25 μM
[19] = raloxifene 50 μM, inhibitor 50 μM
[20] = raloxifene 50 μM, inhibitor 100 μM

In the case of `CCCCCCCCOC(=O)c1cc(O)c(O)c(O)c1` [Octyl gallate], the “residual metabolism (% of control), 2ME2 MG1” value ([1]; inhibitor 50 μM) was 121 (7) %, the “residual metabolism (% of control), 2ME2 MG1” value ([1]; inhibitor 100 μM) was 58 (3) % and the “inhibition of raloxifene glucuronidation, in words” value (from here on “inhibition … in words”) ([2]; UGT1A10) was “very poor inhibitor”. The activity at 15 min, 50 µM ([2]; formation of glucuronide G1, % of control metabolism, raloxifene G1, UGT1A10) was 63%, the activity at 15 min, 50 µM ([2]; formation of glucuronide G2, % of control metabolism, raloxifene G2, UGT1A10) was 71% and the “inhibition … in words” value ([3]; UGT1A3) was “excellent inhibitor”. The activity at 15 min, 10 µM [3, 6] was 61%, the activity at 15 min, 25 µM [3, 6] was 28% and the activity at 15 min, 50 µM [3, 6] was 12%. The activity at 15 min, 10 µM [3, 7] was 60%, the activity at 15 min, 25 µM [3, 7] was 31% and the activity at 15 min, 50 µM [3, 7] was 13%. It also gave an activity at 15 min, 10 µM [3, 8] of 61%, an activity at 15 min, 25 µM [3, 8] of 28% and an activity at 15 min, 50 µM [3, 8] of 12%. The activity at 15 min, 10 µM [3, 9] was 60%, the activity at 15 min, 25 µM [3, 9] was 31% and the activity at 15 min, 50 µM [3, 9] was 13%. For the same compound, the “inhibition … in words” value ([4]; UGT1A9) was “very poor inhibitor”, the activity at 15 min, 50 µM ([4]; formation of glucuronide G1, % of control metabolism, raloxifene G1, UGT1A9, inhibitor 50 μM) was 84% and the activity at 15 min, 50 µM ([4]; formation of glucuronide G2, % of control metabolism, raloxifene G2, UGT1A9, inhibitor 50 μM) was 70%. The “Inhibition of raloxifene glucuronidation, UGT1A9, second line per inhibitor (G2)” value ([4]; second line (G2, metabolite not given), inhibitor 50 μM, raloxifene 50 μM, 250 μg/ml Supersomes, 1 mM UDPGA, 15 min) was 70 (4), the “% of control metabolism (SD, n = 3), raloxifene glucuronide G1” value [5, 10] was 68 (3) % and the “% of control metabolism (SD, n = 3), raloxifene glucuronide G1” value [5, 11] was 48 (6) %. For the same compound, the “% of control metabolism (SD, n = 3), raloxifene glucuronide G1” value [5, 12] was 37 (2) %, the “% of control metabolism (SD, n = 3), raloxifene glucuronide G1” value [5, 13] was 31 (3) % and the “% of control metabolism (SD, n = 3), raloxifene glucuronide G2” value [5, 10] was 75 (8) %. For the same compound, the “% of control metabolism (SD, n = 3), raloxifene glucuronide G2” value [5, 11] was 59 (5) %, the “% of control metabolism (SD, n = 3), raloxifene glucuronide G2” value [5, 12] was 46 (3) % and the “% of control metabolism (SD, n = 3), raloxifene glucuronide G2” value [5, 13] was 52 (7) %. For the same compound, the “% of control metabolism, raloxifene G1” value [5, 14] was 45 (1) %, the “% of control metabolism, raloxifene G2” value [5, 14] was 59 (3) % and the “% of control metabolism, raloxifene G1” value [5, 15] was 55 (5) %. The “% of control metabolism, raloxifene G2” value [5, 15] was 45 (6) %, the “% of control metabolism, raloxifene G1” value [5, 16] was 37 (2) % and the “% of control metabolism, raloxifene G2” value [5, 16] was 46 (3) %. For the same compound, the “% of control metabolism, raloxifene G1” value [5, 17] was 68 (3) %, the “% of control metabolism, raloxifene G2” value [5, 17] was 75 (8) % and the “% of control metabolism, raloxifene G1” value [5, 18] was 48 (6) %. For the same compound, the “% of control metabolism, raloxifene G2” value [5, 18] was 59 (5) %, the “% of control metabolism, raloxifene G1” value [5, 19] was 37 (2) % and the “% of control metabolism, raloxifene G2” value [5, 19] was 46 (3) %. The “% of control metabolism, raloxifene G1” value [5, 20] was 31 (3) % and the “% of control metabolism, raloxifene G2” value [5, 20] was 52 (7) %.
